Results reported in US5574010A, “Treatment of pancreatic tumors with peptide YY and analogs thereof” (The Regents of The University of California, priority 1994, dated 1996).

Assays:
PANC-1 = experiment: MTT viability assay, in vitro anti-proliferative activity; format: cell-based, human; details: 36 hours, vs saline control
Description: (§1) PANC-1 and MiaPaCa-2 are two human pancreatic adenocarcinomas cancer cell lines which are available commercially from suppliers such as American Type Culture Collection, ATCC (Rockville, Md.). For this example, the two tumor cells were grown in RPMI-1640 culture media supplemented with 10% fetal bovine serum, 29.2 mg/L of glutamine, 25 μg gentamicin, 5 ml penicillin, streptomycin, and fungizone solution (JRH Biosciences, Lenexa, Kans.) at 37° Celsius in a NAPCO water jacketed 5 % CO2 incubator. All cell lines were detached with 0.25 % trypsin (Clonetics, San Diego, Calif.) once to twice a week when a confluent monolayer of tumor cells was achieved. Cells were pelleted for 7 minutes at 500 g in a refrigerated centrifuge at 4 ° Celsius, and resuspended in trypsin free fortified RPMI 1640 culture media. Viable cells were counted on a hemocytometer slide with trypan blue.
(§2) Ten thousand, 20,000, 40,000 and 80,000 cells of each type were added to 96 well microculture plates (Costar, Cambridge, Mass.) in a total volume of 200 μl of culture media per well. Cells were allowed to adhere for 24 hours prior to addition of the PYY or Analog #1 peptides. Fresh culture media was exchanged prior to addition of peptides. In vitro incubation of pancreatic tumor cells with either PYY or Analog #1 was continued for 6 hours and 36 hours in length. PYY was added to cells at doses of 250 pmol, 25 pmol, and 2.5 pmol per well (N =14). Analog #1 was added to cells cultures at doses of 400 pmol, 40 pmol, and 4 pmol per well. Control wells received 2 μl of 0.9% saline to mimic the volume and physical disturbance upon adhered tumor cells. Each 96 well plate contained 18 control wells to allow for comparison within each plate during experimentation. Ninety-six (96) well plates were repeated 6 times with varying concentrations of PYY and Analog #1 in both the PANC-1 and MiaPaCa-2 cells.
(§3) At the end of the incubation period, 3-(4,5-dimethylthiazolyl-2-yl)-2,5-diphenyltetrazolium Bromide, MTr tetrazolium bromide (Sigma, St. Louis, Mo.) was added to fresh culture media at 0.5 mg/ml. Culture media was exchanged and tumor cells were incubated for 4 hours with MTT tetrazolium bromide at 37° Celsius. At the end of incubation, culture media was aspirated. Formazon crystal precipitates were dissolved in 200 μl of dimethyl sulfoxide (Sigma, St. Louis, Mo.). Quantitation of solubilized formazon was performed by obtaining absorption readings at […] wavelength on an ELISA reader (Molecular Devices, Menlo Park, Calif.). The MTT assay measures mitochondrial NADH dependent dehydrogenase activity, and it has been among the most sensitive and reliable method to quantitative in vitro chemotherapy responses of tumor cells. (Alley, M. C., Scudiero, D. A., Monk, A., Hursey, M. L., Dzerwinski, M. J., Fine, D. L., Abbott, B. J., Mayo, J. G., Shoemaker, R. H. and Boyd, M. R., Feasibility of drug screening with panels of human tumor cell lines using a microculture tetrazolium assay Cancer Res., 48:589-601, 1988; Carmichael, J., DeGraff, W. G., Gazdar, A. F., Minna, J. D. and Mitchell, J. B., Evaluation of a tetrazolium-based semiautomated colorimetric assay: Assessment of chemosensitivity testing. Cancer Res., 47:936-942, 1987; McHale, A. P., McHale, L., Use of a tetrazolium based colorimetric assay in assessing photoradiation therapy in vitro. Cancer Lett., 41:315-321, 1988; and Saxton, R. E., Huang, M. Z., Plante D., Fetterman, H. F., Lufkin, R. B., Soudant, J., Castro, D. J., Laser and daunomycin chemophototherapy of human carcinoma cells. J. Clin. Laser Med. and Surg., 10(5):331-336, 1992.)
(§4) Analysis of absorption readings at 550 nm were analyzed by grouping wells of the same test conditions and verifying differences occurring between control and the various peptide concentration treatments by one-way ANOVA. Once statistical significance was achieved, P <0.05, each test group was compared to its paired control group by Student's T-test within each 96 well plate. […]

MiaPaCa-2 = experiment: as above; format: cell-based, human; details: Mia PaCa-2, 36 hours, vs saline control
Description: as §1, §2, §3, §4

human Mia PaCa-2 cells = experiment: In vivo growth inhibition of orthotopically transplanted pancreatic ductal adenocarcinoma; details: male athymic mice, orthotopic Mia PaCa-2; 200 pmol/kg/hr via mini-osmotic pumps for four weeks; vs saline control
Description: The human pancreatic ductal adenocarcinoma Mia Paca-2 was examined for in vivo growth inhibition by peptide YY and Analog #1. Seventy thousand to 100,000 human Mia PaCa-2 cells were orthotopically transplanted into 48 male athymic mice. After one week, the animals were treated with either PYY or Analog #1 at 200 pmol/kg/hr via mini-osmotic pumps for four weeks. The paired cultures received saline. At sacrifice, both tumor size and mass were measured. Control mice had significant human cancer growth within the pancreas as evidenced by histologic sections. At 9 weeks, ninety percent (90%) of control mice had substantial metastatic disease.

PYY: 36 amino acid residue peptide amide isolated originally from porcine intestine; the species of the PYY tested is not stated [Peptide YY]
Percent Reduction in Tumor Growth(%) Compared to Control (PANC-1; 2.5 pmol per well): 9.8% | Percent Reduction in Tumor Growth(%) Compared to Control (PANC-1; 25 pmol per well): 14.7% | Percent Reduction in Tumor Growth(%) Compared to Control (PANC-1; 250 pmol per well): 25.7% | Percent Reduction in Tumor Growth(%) Compared to Control (MiaPaCa-2; 2.5 pmol per well): 0.5% | Percent Reduction in Tumor Growth(%) Compared to Control (MiaPaCa-2; 25 pmol per well): 12.8% | Percent Reduction in Tumor Growth(%) Compared to Control (MiaPaCa-2; 250 pmol per well): 15.4% | Tumor mass decreased (human Mia PaCa-2 cells): 27%
